The experiment concerns gap junction channels. Briefly: Cell-cell dye transfer after local uncaging in C. elegans embryos (control experiments). It is filed as in vivo. The note with it: α-GA 25 μM, 4-cell embryo, eggshell thinned with bleach and chitinase, ABp uncaged. From the text:
To study the pattern of cell-cell coupling during early development, embryos were collected from injected worms and subjected to differential interference contrast (“DIC”) imaging. Three to four hours after injection, early embryos were collected from injected worms by cutting the worms near the uterus. Labeled embryos were transferred onto a 2% agar pad, covered with a coverslip, and mounted on an inverted fluorescence microscope (Axiovert 200M, Carl Zeiss, Peabody, Mass.). During uncaging and imaging, motorized filter wheels (Ludl Electronics Products, Hawthorne, N.Y.) were employed to select excitation and emission wavelengths by passing light from a Xeon lamp (75 W) through bandpass filters (Chroma Technology, Rockingham, Vt.). A neutral density filter was also added to the light path to reduce the excitation light intensity by about 70%. The typical UV uncaging duration is about 2 seconds. Bandpass filters were chosen for UV uncaging (360±20 nm), coumarin imaging (excitation 425±5 nm, emission 460±15 nm), GFP imaging (excitation 488±7.5 nm, emission 530±20 nm), and rhodamine imaging (excitation 560±20 nm, emission 615±30 nm). A customized multiple path dichroic mirror was used for the UV uncaging and 3-color imaging. Epifluorescence was collected with a cooled CCD camera (ORCA-ER, Hamamatsu, Bridgewater, N.J.) under the control of OpenLab software (Improvision, Waltham, Mass.). […]

Here are results for one compound from patent publication US8153103B2, “Conjugates of photo-activatable dyes” (Board of Regents, The University of Texas System, priority 2008, dated 2012).

Regarding `CC1(C)[C@@H](O)CC[C@]2(C)[C@H]3C(=O)C=C4[C@H]5C[C@@](C)(C(=O)O)CC[C@]5(C)CC[C@@]4(C)[C@]3(C)CC[C@@H]12` [α-GA, 18α-glycyrrhetinic acid], the “cell-cell dye transfer after uncaging dextran-CANPE-HCC in presence of blocker” value is listed as “dye transfer was not observed”.
